Tests used:
rice = test: Test C flooded paddy test; type: in vivo, Oryza sativa; conditions: Flood, scale 0 to 100 (0 no effect, 100 complete control), 13 to 15 days
How it was run: (§1)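 Test compounds are applied straight into paddy water held 3 cm above the soil surface, with that flood maintained for the whole test. After 13 to 15 days in the greenhouse, each species is scored visually relative to controls.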

sedge, umbrella = test: Test C flooded paddy test; type: in vivo, Cyperus difformis; conditions: Flood, scale 0 to 100 (0 no effect, 100 complete control), 13 to 15 days
How it was run: as §1

corn [1] = test: Test E preemergence; type: in vivo, Zea mays; conditions: for Corn plant response rating: scale 0 to 100 (0 no effect, 100 complete control); for Plant response rating, Corn: scale 0 to 100, 0 no effect, 100 complete control
How it was run: (§2)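 Compound in a non-phytotoxic solvent mixture with surfactant was applied preemergence to seeds in silt loam soil, or postemergence to plants 2 to 18 cm tall grown in peat-based potting medium. Plants were kept in a greenhouse for 14 to 21 days, then rated visually against untreated controls on a 0 (no effect) to 100 (complete control) scale.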

lambsquarters = test: Test E preemergence; type: in vivo, Chenopodium album; conditions: for Lambsquarters plant response rating: scale 0 to 100 (0 no effect, 100 complete control); for Plant response rating, Lambsquarters: scale 0 to 100, 0 no effect, 100 complete control
How it was run: as §2

wild poinsettia = test: Test E preemergence; type: in vivo, Euphorbia heterophylla; conditions: for Poinsettia, Wild plant response rating: scale 0 to 100 (0 no effect, 100 complete control); for Plant response rating, Poinsettia, Wild: scale 0 to 100, 0 no effect, 100 complete control
How it was run: as §2

palmer pigweed = test: Test E preemergence; type: in vivo, Amaranthus palmeri; conditions: for Pigweed, Palmer plant response rating: scale 0 to 100 (0 no effect, 100 complete control); for Plant response rating, Pigweed, Palmer: scale 0 to 100, 0 no effect, 100 complete control
How it was run: as §2

Brazilian crabgrass [2] = test: Test E preemergence; type: in vivo, Digitaria horizontalis; conditions: for Crabgrass, Brazil plant response rating: scale 0 to 100 (0 no effect, 100 complete control); for Plant response rating, Crabgrass, Brazil: scale 0 to 100, 0 no effect, 100 complete control
How it was run: as §2

arrowleaf sida = test: Test E preemergence; type: in vivo, Sida rhombifolia; conditions: preemergence; for Arrowleaf Sida plant response rating: scale 0 to 100 (0 no effect, 100 complete control); for Plant response rating, Arrowleaf Sida: scale 0 to 100, 0 no effect, 100 complete control
How it was run: as §2

dayflower [3] = test: Test E preemergence; type: in vivo, Commelina virginica; conditions: for Dayflower, VA plant response rating: scale 0 to 100 (0 no effect, 100 complete control); for Plant response rating, Dayflower, VA: scale 0 to 100, 0 no effect, 100 complete control
How it was run: as §2

field bindweed = test: Test E preemergence; type: in vivo, Convolvulus arvensis; conditions: for Field Bindweed plant response rating: scale 0 to 100 (0 no effect, 100 complete control); for Plant response rating, Field Bindweed: scale 0 to 100, 0 no effect, 100 complete control
How it was run: as §2

morningglory = test: Test E preemergence; type: in vivo, Ipomoea coccinea; conditions: for Morningglory plant response rating: scale 0 to 100 (0 no effect, 100 complete control); for Plant response rating, Morningglory: scale 0 to 100, 0 no effect, 100 complete control
How it was run: as §2

yellow nutsedge = test: Test E preemergence; type: in vivo, Cyperus esculentus; conditions: for Nutsedge, Yellow plant response rating: scale 0 to 100 (0 no effect, 100 complete control); for Plant response rating, Nutsedge, Yellow: scale 0 to 100, 0 no effect, 100 complete control
How it was run: as §2

hairy beggarticks = test: Test E preemergence; type: in vivo, Bidens pilosa; conditions: preemergence; for Beggarticks plant response rating: scale 0 to 100 (0 no effect, 100 complete control); for Plant response rating, Beggarticks: scale 0 to 100, 0 no effect, 100 complete control
How it was run: as §2

corn [4] = test: Test E postemergence; type: in vivo, Zea mays
How it was run: as §2

soybean = test: Test E postemergence; type: in vivo, Glycine max
How it was run: as §2

Brazilian crabgrass [5] = test: Test E postemergence; type: in vivo, Digitaria horizontalis
How it was run: as §2

Italian ryegrass = test: Test E postemergence; type: in vivo, Lolium multiflorum
How it was run: as §2

dayflower [6] = test: Test E postemergence; type: in vivo, Commelina virginica
How it was run: as §2

[7] = Postemergence, 31 g ai/ha, scale 0 to 100
[8] = Postemergence, 62 g ai/ha, scale 0 to 100
[9] = Postemergence, 125 g ai/ha, scale 0 to 100
[10] = Postemergence, 250 g ai/ha, scale 0 to 100
[11] = postemergence, 16 g ai/ha, scale 0 to 100, 0 no effect, 100 complete control

N#Cc1cnn(-c2c(C#N)cccc2Oc2ncc(Cl)cn2)c1 [Compound 200]
30: Corn plant response rating (corn [1]; 62 g ai/ha) | Plant response rating, Corn (corn [1]; 125 g ai/ha) | Crabgrass, Brazil plant response rating (Brazilian crabgrass [2]; 16 g ai/ha) | Plant response rating, Crabgrass, Brazil (Brazilian crabgrass [5]; [8])
65: Lambsquarters plant response rating (lambsquarters; 31 g ai/ha) | Dayflower, VA plant response rating (dayflower [3]; 62 g ai/ha) | Plant response rating, Dayflower, VA (dayflower [3]; 125 g ai/ha)
95: Plant response rating, Poinsettia, Wild (wild poinsettia; 250 g ai/ha) | Plant response rating, Field Bindweed (field bindweed; 250 g ai/ha) | Plant response rating, Beggarticks (hairy beggarticks; 250 g ai/ha) | Plant response rating, Soybean (soybean; [7]) | Plant response rating, Soybean (soybean; [8]) | Plant response rating, Soybean (soybean; [9]) | Plant response rating, Soybean (soybean; [11])
70: Arrowleaf Sida plant response rating (arrowleaf sida; 62 g ai/ha) | Plant response rating, Field Bindweed (field bindweed; 125 g ai/ha) | Plant response rating, Nutsedge, Yellow (yellow nutsedge; 250 g ai/ha) | Plant response rating, Dayflower, VA (dayflower [6]; [10])
75: Plant response rating, Corn (corn [1]; 250 g ai/ha) | Plant response rating, Beggarticks (hairy beggarticks; 125 g ai/ha)
35: Dayflower, VA plant response rating (dayflower [3]; 31 g ai/ha) | Beggarticks plant response rating (hairy beggarticks; 62 g ai/ha)
25: Plant response rating, Corn (corn [4]; [10]) | Plant response rating, Dayflower, VA (dayflower [6]; [7])
100: Plant response rating, Lambsquarters (lambsquarters; 250 g ai/ha) | Pigweed, Palmer plant response rating (palmer pigweed; 62 g ai/ha) | Plant response rating, Pigweed, Palmer (palmer pigweed; 125 g ai/ha) | Plant response rating, Pigweed, Palmer (palmer pigweed; 250 g ai/ha) | Crabgrass, Brazil plant response rating (Brazilian crabgrass [2]; 62 g ai/ha) | Plant response rating, Crabgrass, Brazil (Brazilian crabgrass [2]; 125 g ai/ha) | Plant response rating, Crabgrass, Brazil (Brazilian crabgrass [2]; 250 g ai/ha) | Plant response rating, Arrowleaf Sida (arrowleaf sida; 125 g ai/ha) | Plant response rating, Arrowleaf Sida (arrowleaf sida; 250 g ai/ha)
20: Arrowleaf Sida plant response rating (arrowleaf sida; 16 g ai/ha) | Arrowleaf Sida plant response rating (arrowleaf sida; 31 g ai/ha) | Morningglory plant response rating (morningglory; 31 g ai/ha) | Plant response rating, Corn (corn [4]; [9])
40: Pigweed, Palmer plant response rating (palmer pigweed; 31 g ai/ha) | Field Bindweed plant response rating (field bindweed; 62 g ai/ha) | Plant response rating, Nutsedge, Yellow (yellow nutsedge; 125 g ai/ha) | Plant response rating, Dayflower, VA (dayflower [6]; [8])
0: Plant response rating, Rice (rice; 31 g ai/ha) | Plant response rating, Rice (rice; 62 g ai/ha) | Plant response rating, Rice (rice; 125 g ai/ha) | Plant response rating, Rice (rice; 250 g ai/ha) | Plant response rating, Sedge, Umbrella (sedge, umbrella; 31 g ai/ha) | Corn plant response rating (corn [1]; 16 g ai/ha) | Dayflower, VA plant response rating (dayflower [3]; 16 g ai/ha) | Nutsedge, Yellow plant response rating (yellow nutsedge; 31 g ai/ha) | Nutsedge, Yellow plant response rating (yellow nutsedge; 62 g ai/ha) | Beggarticks plant response rating (hairy beggarticks; 16 g ai/ha) | Plant response rating, Ryegrass, Italian (Italian ryegrass; [7]) | Plant response rating, Ryegrass, Italian (Italian ryegrass; [8]) | Plant response rating, Ryegrass, Italian (Italian ryegrass; [9]) | Plant response rating, Ryegrass, Italian (Italian ryegrass; [10]) | Plant response rating, Ryegrass, Italian (Italian ryegrass; [11])
10: Field Bindweed plant response rating (field bindweed; 31 g ai/ha) | Beggarticks plant response rating (hairy beggarticks; 31 g ai/ha) | Plant response rating, Corn (corn [4]; [7]) | Plant response rating, Corn (corn [4]; [11]) | Plant response rating, Crabgrass, Brazil (Brazilian crabgrass [5]; [11])
85: Crabgrass, Brazil plant response rating (Brazilian crabgrass [2]; 31 g ai/ha) | Plant response rating, Dayflower, VA (dayflower [3]; 250 g ai/ha)
50: Poinsettia, Wild plant response rating (wild poinsettia; 31 g ai/ha) | Poinsettia, Wild plant response rating (wild poinsettia; 62 g ai/ha) | Morningglory plant response rating (morningglory; 62 g ai/ha) | Plant response rating, Crabgrass, Brazil (Brazilian crabgrass [5]; [9])
90: Plant response rating, Sedge, Umbrella (sedge, umbrella; 125 g ai/ha) | Plant response rating, Sedge, Umbrella (sedge, umbrella; 250 g ai/ha) | Plant response rating, Poinsettia, Wild (wild poinsettia; 125 g ai/ha) | Plant response rating, Morningglory (morningglory; 125 g ai/ha)
60: Plant response rating, Crabgrass, Brazil (Brazilian crabgrass [5]; [10]) | Plant response rating, Dayflower, VA (dayflower [6]; [9])
15: Plant response rating, Corn (corn [4]; [8]) | Plant response rating, Crabgrass, Brazil (Brazilian crabgrass [5]; [7]) | Plant response rating, Dayflower, VA (dayflower [6]; [11])
80: Plant response rating, Sedge, Umbrella (sedge, umbrella; 62 g ai/ha) | Lambsquarters plant response rating (lambsquarters; 62 g ai/ha)
98: Plant response rating, Lambsquarters (lambsquarters; 125 g ai/ha) | Plant response rating, Morningglory (morningglory; 250 g ai/ha) | Plant response rating, Soybean (soybean; [10])
5: Corn plant response rating (corn [1]; 31 g ai/ha) | Field Bindweed plant response rating (field bindweed; 16 g ai/ha)

Source: US9695155B2, “Herbicidal substituted pyrimidinyloxy benzene compounds” (E. I. DU PONT DE NEMOURS AND COMPANY, priority 2013, dated 2017)
